Test results: patent US20200147116A1, “Use of Paeoniflorin-6'-O-benzenesulfonate in treatment of Sjögren's syndrome” (NINGBO ZHIMING BIOTECHNOLOGY CO., LTD., priority 2017, published 2020)

How the values were obtained:
Assay type in all cases: in vivo
[1] = test system: spleen CD4+ IL-17A+ T lymphocytes; experiment: Spleen CD4+ IL-17A+ T lymphocytes in NOD model mice (FIG. 13)
From the text: FIG. 13 Effects of CP-25 on spleen CD4^+ IL-17A^+ T lymphocytes in NOD model mice.

[2] = test system: Sjögren's syndrome model mice (C57BL/6 female mice); experiment: Saliva amount in induced Sjögren's syndrome model mice (wet weight method after pilocarpine); conditions: for Saliva amount in SS mice, One week after administration / Saliva amount in SS mice, Two weeks after administration / Saliva amount in SS mice, Pre-administration: Example 1, C57BL/6 SS mice; for Saliva amount in SS mice, Pre-administration / Saliva amount, Pre-administration: baseline before administration; for Saliva amount, One week after: one week of administration; for Saliva amount, Two weeks after: two weeks of administration
Procedure: […] Water intake, saliva amount and submaxillary gland pathological analysis and score were determined respectively, on the day before administration, the 7th day and 14th day after administration. The therapeutic effects of CP-25 on Sjögren's syndrome were evaluated by comparison of changes of each index before and after treatment. 2 Sjögren's syndrome model mice: C57BL/6 female mice housed in a SPF environment with successful modeling (The animal model was made via repeated multi-point intracutaneous injection of submaxillary gland homogenate of homologous mice to tail and back of mice). The animal model was made via repeated multi-point intracutaneously injection of submaxillary gland homogenate of homologous mice to tail and back of mice, and the mice with successful modeling were randomly assigned to each group according to comprehensive conditions of mice. At the same time, the average weight and status of each group of mice should be as close as possible. […] […] High dose of said pharmaceutical should be incubated for half an hour before use. Before measurement, mice were anesthetized via intraperitoneal injection of 0.05 ml of 2.4% pentobarbital sodium, and the satisfactory anesthesia was smooth breathing, corneal reflex disappearance and limb muscle relaxation. After complete anesthesia, a mouse was placed in slightly tilted trendelenburg position, and its body was kept warm using the heater. The mouse was injected intraperitoneally with 0.1 ml of 0.025 mg/ml Pilocarpine, and 5 min later, a weighed cotton ball was placed in the mouth of the mouse for 10 min. After taking the ball out, the saliva weight of mice was measured by the wet weight method.

spleen B lymphocytes = experiment: Spleen B lymphocyte proliferation in NOD model mice (FIG. 12B)
From the text: FIG. 12 Effects of CP-25 on spleen T and B lymphocyte proliferation in NOD model mice.
A: T lymphocytes; B: B lymphocytes

[3] = test system: spleen CD19+ CD27+ B lymphocytes; experiment: Spleen CD19+ CD27+ B lymphocytes in SS model mice (FIG. 7)
From the text: FIG. 7 Effects of CP-25 on spleen CD19^+ CD27^+ B lymphocytes in SS model mice.

[4] = test system: spleen CD4+ CD25+ FOXP3+ T lymphocytes; experiment: Spleen CD4+ CD25+ FOXP3+ T lymphocytes in NOD model mice (FIG. 14)
From the text: FIG. 14 Effects of CP-25 on spleen CD4^+ CD25^+ FOXP3^+ T lymphocytes in NOD model mice.

[5] = test system: spleen CD4+ CD25+FOXP3+ T lymphocytes; experiment: Spleen CD4+ CD25+ FOXP3+ T lymphocytes in SS model mice (FIG. 5, 6); conditions: FIG. 6
From the text: FIG. 5 Effects of CP-25 on spleen CD4^+ CD25^+FOXP3^+ T lymphocytes in SS model mice.
FIG. 6 Effects of CP-25 on spleen CD4^+ CD25^+FOXP3^+ T lymphocytes in SS model mice.

[6] = test system: spleen CD4+ IL-17A+ T lymphocytes; experiment: Spleen CD4+ IL-17A+ T lymphocytes in SS model mice (FIG. 4)
From the text: FIG. 4 Effects of CP-25 on spleen CD4^+ IL-17A^+ T lymphocytes in SS model mice.

[7] = SS model mice, 17.5 mg/kg by gavage
[8] = SS model mice, 35 mg/kg by gavage

C[C@@]12C[C@@]3(O)O[C@H](O1)C1(COC(=O)c4ccccc4)[C@@H]3CC12OC1OC(COS(=O)(=O)c2ccccc2)C(O)C(O)C1O (stereo partly shown) [CP-25, Paeoniflorin-6′-O-benzenesulfonate]
Ratio of spleen CD4+ IL-17A+ Th17 lymphocytes [1]: significantly inhibit
Saliva amount in SS mice, One week after administration ([2]; 17.5 mg/kg): 17.83 ± 2.14 mg/each mouse/10 min
Saliva amount in SS mice, Two weeks after administration ([2]; 17.5 mg/kg): 17.67 ± 2.07^ mg/each mouse/10 min
Saliva amount in SS mice, One week after administration ([2]; 35 mg/kg): 18.33 ± 1.97 mg/each mouse/10 min
Saliva amount in SS mice, Two weeks after administration ([2]; 35 mg/kg): 23.17 ± 2.64 mg/each mouse/10 min
Saliva amount in SS mice, One week after administration ([2]; 70 mg/kg): 25.67 ± 1.63 mg/each mouse/10 min
Saliva amount in SS mice, Two weeks after administration ([2]; 70 mg/kg): 26.83 ± 1.47 mg/each mouse/10 min
Saliva amount in SS mice, Pre-administration ([2]; dose group 17.5 mg/kg): 22.67 ± 3.27 mg/each mouse/10 min
Saliva amount in SS mice, Pre-administration ([2]; dose group 35 mg/kg): 23.01 ± 2.37 mg/each mouse/10 min
Saliva amount in SS mice, Pre-administration ([2]; dose group 70 mg/kg): 22.75 ± 3.67 mg/each mouse/10 min
Saliva amount, One week after [2, 7]: 17.83 ± 2.14 mg/10 min
Saliva amount, Two weeks after [2, 7]: 17.67 ± 2.07^ mg/10 min
Saliva amount, One week after [2, 8]: 18.33 ± 1.97 mg/10 min
Saliva amount, Two weeks after [2, 8]: 23.17 ± 2.64 mg/10 min
Saliva amount, One week after ([2]; SS model mice, 70 mg/kg): 25.67 ± 1.63 mg/10 min
Saliva amount, Two weeks after ([2]; SS model mice, 70 mg/kg): 26.83 ± 1.47 mg/10 min
Saliva amount, Pre-administration ([2]; SS model mice, dose group 17.5 mg/kg by gavage): 22.67 ± 3.27 mg/10 min
Saliva amount, Pre-administration ([2]; SS model mice, dose group 35 mg/kg by gavage): 23.01 ± 2.37 mg/10 min
Saliva amount, Pre-administration ([2]; SS model mice, dose group 70 mg/kg): 22.75 ± 3.67 mg/10 min
Curative effect judged on saliva amount after one week of medication ([2]; SS model mice, high dose of CP-25, TGP, Pae, HCQ at the doses of Table 3): had curative effects
Efficacy judged on saliva amount with medication extended to two weeks ([2]; SS model mice, two weeks of medication): more significant efficacy
Saliva amount (in words) ([2]; Sjögren's syndrome mice, Example 1): significantly increase
Onset time of curative effects versus comparators ([2]; Sjögren's syndrome mice, Example 1, saliva amount): earlier than that of TGP, Pae or HCQ
Spleen B lymphocyte proliferation (spleen B lymphocytes): significantly inhibit
Ratio of spleen CD19+ CD27+ B lymphocytes [3]: significantly increase
Ratio of spleen CD4+ CD25+FOXP3+ Treg lymphocytes [4]: significantly improve
Ratio of CD4+ CD25+FOXP3+ Treg lymphocytes [5]: increase
Ratio of CD4+ IL-17A+ Th17 lymphocytes [6]: significantly inhibit
